Reference: US20080255053A1, “METHOD FOR THE THERAPEUTIC MANAGEMENT OF ENDOMETRIOSIS” (Aeterna Zentaris GmbH, priority 1999, published 2008)
Non-standard residues stand in square brackets, D forms with d. Residues, ends and D or L forms follow the SMILES beside them. dPhe(4-Cl) = N[C@H](Cc1ccc(Cl)cc1)C(=O)O; d2Nal = N[C@H](Cc1ccc2ccccc2c1)C(=O)O; dCit = NC(=O)NCCC[C@@H](N)C(=O)O; d3Pal = N[C@H](Cc1cccnc1)C(=O)O

Tested on: patients with confirmed endometriosis
Assay: Weekly 3 mg Cetrorelix for 8 weeks in patients with confirmed endometriosis
Format: in vivo, human
Details: 3 mg weekly for 8 weeks

CC(=O)N[C@H](Cc1ccc2ccccc2c1)C(=O)N[C@H](Cc1ccc(Cl)cc1)C(=O)N[C@H](Cc1cccnc1)C(=O)N[C@@H](CO)C(=O)N[C@@H](Cc1ccc(O)cc1)C(=O)N[C@H](CCCNC(N)=O)C(=O)N[C@@H](CC(C)C)C(=O)N[C@@H](CCCNC(=N)N)C(=O)N1CCC[C@H]1C(=O)N[C@H](C)C(N)=O [Cetrorelix acetate] (Ac-[d2Nal][dPhe(4-Cl)][d3Pal]SY[dCit]LRP[dA]-NH2)
hot flushes or other hormonal (estradiol) withdrawal symptoms: avoiding any hot flushes or other withdrawal symptoms | proliferation of the endometrium at the end of treatment (histological biopsies): no proliferation of the endometrium | hot flushes or other hormonal (estradiol) withdrawal symptoms (listed as Cetrorelix): without any signs of estradiol withdrawal symptoms | proliferation of the endometrium at the end of treatment (histological biopsies) (listed as Cetrorelix): without proliferation of the endometrium
